# Test results published in patent publication US9616010B2, “Cosmetic composition comprising a ternary lipid association for controlling dryness of the skin” (PIERRE FABRE DERMO-COSMETIQUE, priority 2013, dated 2017).
# How the values were obtained:
# isolated stratum corneum = conditions: Levi et al., Int J Cosmet Sci. 2010; 32: 276-93; cited from earlier work
# [1] = tested on: isolated stratum corneum (SC) from human skin explants; test: Mechanical stress within isolated SC subjected to dehydration stress in an environmental chamber (substrate curvature)
# Description: These elements led the Applicant to use an in vitro model of isolated SC to study changes in mechanical properties as a function of hydration level. Measuring skin tension makes it possible to define a relationship between skin dryness and skin stress, and the appearance of cracks. Moreover, the use of this model makes it possible to know with a high degree of accuracy the effect of active agents on these mechanical measurements and, consequently, on the hydration state of the stratum corneum. (K. Levi, R. J. Weber, J. Q. Do and R. H. Dauskardt. International Journal of Cosmetic Science, 2010, 32, 276-293 Drying stress and damage processes in human stratum corneum) (K. Levi and R. H. Dauskardt. International Journal of Cosmetic Science, 2010, 32, 294-298 Application of substrate curvature method to differentiate drying stresses in topical coatings and human stratum corneum).
# The mechanical approach used here consists in measuring the mechanical stress produced within SC that has been isolated and subjected to dehydration stress in an environmental chamber.
# The SC specimen—from human skin explants—was isolated by enzymatic digestion. It was placed on a borosilicate slide to which it naturally adheres.
# The SC, initially 100% hydrated, is then placed in an atmosphere with 7% air humidity. The SC then undergoes a progressive dehydration, during which measurements of SC tension are taken every 15 minutes for 8 hours using a stress measurement device. […] Given the differences that exist between its mechanical properties and those of the support (the slide), the latter bends. By means of this radius of curvature, measured with a laser interferometer, it is then possible to calculate the state of tension/stress from the Stoney equation. The initial data correspond to a measurement of the variation of the curvature of the unit (borosilicate slide+SC). It is possible to calculate the biomechanical stress parameters of the SC, such as tension, from knowledge of the biomechanical properties of the borosilicate slide, its thickness, and the thickness of the SC (see methodology FIG. 1; and bibliographical reference K. Levi, et al., IJCS 2010).
# This first kinetics study makes it possible to know the behavior of untreated SC. Next, the unit (SC+slide) is returned to 100% air humidity for 2 hours and then incubated in the various treatments for 5 minutes. A […] film is deposited: using a spiral filmograph for liquid emollients and a slide for creams. At the end of this period the unit is again placed in 7% air humidity for the study of dehydration kinetics until stabilization of the measurements (generally 8 to 12 hours). […]
substance,measurement,setting,value
isocetyl stearoyl stearate [compound 1],efficacy with respect to the shrinking of the stratum corneum specimen desiccated by a lack of moisture,isolated stratum corneum,good efficacy
same,maximum stress within the SC,"[1]; SC pretreated 5 minutes, then 7% air humidity, compared with untreated control, FIG. 3",momentarily greater than the control
same,time to reach minimum stress plateau,"[1]; after the stress starts to fall, 7% air humidity, FIG. 3",2 h
same,time after which the stress falls,"[1]; hours of dehydration at 7% air humidity, FIG. 3",3 h
same,shrinking of the skin induced by drying stress,"[1]; topical application, during the first 4 hours, FIG. 1",increases
